Usually IC50 stands for the concentration that gives 50% inhibition.

Experimental findings from ChEMBL document CHEMBL5046248, “New Pqs Quorum Sensing System Inhibitor as an Antibacterial Synergist against Multidrug-Resistant Pseudomonas aeruginosa” (J Med Chem, 2022) are described below.

For this experiment, the system named is Pseudomonas aeruginosa. The experiment is described as follows: Antibacterial activity against Pseudomonas aeruginosa PAO1 assessed as inhibition of biofilm formation for 24 hrs by crystal violet staining based assay. The experiment is classed as functional, organism-based. The note with it: PAO1, 24 h.

As to `CCCCn1c(C)cc(=O)c(O)c1CNC(=O)c1cccc(OC)c1`, the IC50 amounted to 31.1 µM.

On to `CCn1c(C)cc(=O)c(O)c1CNS(=O)(=O)c1ccc(OC)cc1`, for which the IC50 was above 100 µM.

For the compound `CCCCCCC(=O)NCc1c(O)c(=O)cc(C)n1CCCC`, the IC50 was above 100 µM.

For the compound `CCCn1c(C)cc(=O)c(O)c1CNC1CCCC1`, the IC50 was above 100 µM.

For `COc1ccc(C(=O)NCc2cc(=O)c(O)cn2O)cc1`, the IC50 is above 100 µM.

Regarding `CCCCn1c(C)cc(=O)c(O)c1CNc1ccc(OC)cc1`, the IC50 turned out to be 45.4 µM.

As to `CCCCn1c(C)cc(=O)c(O)c1CNC(=O)c1ccc(C(F)(F)F)cc1`, the IC50 is 8.4 µM.

Take `CCCCn1c(C)cc(=O)c(O)c1CNS(=O)(=O)c1ccc(OC)cc1`: the IC50 was determined as 40.4 µM.

Take `CCCn1c(C)cc(=O)c(O)c1CNC(=O)c1cccc(OC)c1`: the IC50 was determined as 56.5 µM.

As to `O=C(Cc1ccc(F)cc1)NCc1cc(=O)c(O)cn1O`, the IC50 is above 100 µM.

On to `CCCCCCC(=O)NCc1cc(=O)c(O)cn1C`, for which the IC50 was above 100 µM.

With `CCCCCCC(=O)NCc1c(O)c(=O)cc(C)n1CCC`, the IC50 was above 100 µM.

On to `CCCCCC(=O)NCc1c(O)c(=O)cc(C)n1CCCC`, for which the IC50 came out at 34.9 µM.

For `CCn1c(C)cc(=O)c(O)c1CNC(=O)c1ccc(OC)cc1`, the IC50 is above 100 µM.

With `CCCn1c(C)cc(=O)c(O)c1CNC(=O)c1ccc(C(F)(F)F)cc1`, the IC50 was above 100 µM.

For the compound `Cn1cc(O)c(=O)cc1CNC(=O)Cc1ccc(F)cc1`, the IC50 is above 100 µM.

As for `CCCCCC(=O)NCc1c(O)c(=O)cc(C)n1CC`, the IC50 is above 100 µM.

In the case of `CCCCCC(=O)NCc1cc(=O)c(O)cn1O`, the IC50 was above 100 µM.

As to `CCCCCn1c(C)cc(=O)c(O)c1CNC(=O)c1ccc(OC)cc1`, the IC50 came out at 52.5 µM.

For the compound `COc1ccc(C(=O)NCc2cc(=O)c(O)cn2C)cc1`, the IC50 is above 100 µM.

On to `CC[C@H]1OC(=O)[C@H](C)[C@@H](O[C@H]2C[C@@](C)(OC)[C@@H](O)[C@H](C)O2)[C@H](C)[C@@H](O[C@@H]2O[C@H](C)C[C@H](N(C)C)[C@H]2O)[C@](C)(O)C[C@@H](C)CN(C)[C@H](C)[C@@H](O)[C@]1(C)O` [AZITHROMYCIN], for which the IC50 is 7.1 µM.

In the case of `CCCn1c(C)cc(=O)c(O)c1CNC(=O)c1ccc(OC)cc1`, the IC50 worked out at 5.2 µM.

`CCCCn1c(C)cc(=O)c(O)c1CNC1CCCC1`: the IC50 is above 100 µM.
